In patent US20240025906A1 (NEURON23, INC., priority 2022, published 2024):
pIC50, pKd: −log10 of the molar value.

Legend:
TYK2 JH2 = target: T1, TYK2 JH2 (Homo sapiens, UniProt P29597); experiment: TYK2 JH2 binding assay (KINOMEscan KdELECT competitive binding); conditions: TYK2 JH2 domain, KINOMEscan KdELECT (Assay A); read-out: Biochemical TYK2_DiscoverX_JH2_BND_Kd
T1 construct: purchased DiscoverX (KINOMEscan KdELECT service); host or cells: E. coli BL21-derived (T7 phage display) or HEK-293
T1 sequence (P29597 589-875 limits assumed): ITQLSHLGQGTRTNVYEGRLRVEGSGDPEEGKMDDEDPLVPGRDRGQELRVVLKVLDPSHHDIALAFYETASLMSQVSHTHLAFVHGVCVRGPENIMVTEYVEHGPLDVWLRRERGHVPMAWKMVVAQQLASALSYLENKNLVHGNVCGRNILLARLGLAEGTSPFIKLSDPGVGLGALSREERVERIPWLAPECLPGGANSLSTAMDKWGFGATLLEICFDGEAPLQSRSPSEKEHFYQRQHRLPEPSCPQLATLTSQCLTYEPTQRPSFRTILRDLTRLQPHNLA
In short: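 Beads carrying a biotinylated ligand were mixed with tagged JH2 kinase and compound (11 points, 3-fold steps, 0.9% DMSO) and shaken 1 h at room temperature. After washing, kinase was released with 0.5 μM untagged ligand over 30 min and measured by qPCR to derive Kd.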

[1] = tested on: JAK1/TYK2 pSTAT5 (Tyr694/699) in THP-1 cell line; experiment: IFNa-stimulated JAK1/TYK2 pSTAT5 (Tyr694/699) inhibition cellular assay, AlphaLISA; type: cell-based; conditions: Homo sapiens; THP-1 cells, IFNa-stimulated, AlphaLISA (Assay B); read-out: Cellular_THP1_IFNa-pSTATS_TYK2
In short: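 pSTAT5 (Tyr694/699) in lysates quantified by AlphaLISA (615 nm) after 30 min IFNa stimulation (100 ng/mL stock) of THP-1 cells. The cells, 2e4 per well in HBSS, had first been exposed 1 h at 37° C. to eight 6-fold compound dilutions, 10000 down to 0.04 nM final. IC50 fitted by 4PL regression, bottom 0, Hill slope −1.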

pKd (TYK2 JH2) | pIC50 [1] | Compound
≥ 7.00 | ≥ 6.30 | CNc1ncc(-c2nc3cc([C@]4(C)CCCO4)ccc3o2)c2cc(NC(=O)C3CC3)ncc12 [Example 948, (S)—N-(8-(methylamino)-5-(5-(2-methyltetrahydrofuran-2-yl)benzo[d]oxazol-2-yl)-2,7-naphthyridin-3-yl)cyclopropanecarboxamide]
≥ 7.00 | ≥ 6.30 | CNc1ncc(C#Cc2ncccn2)c2cc(NC(=O)C3CC3)ncc12 [Example 950, N-(8-(methylamino)-5-(pyrimidin-2-ylethynyl)-2,7-naphthyridin-3-yl)cyclopropanecarboxamide]
≥ 7.00 | ≥ 6.30 | CNc1ncc(C#Cc2ccc(N3CCOCC3)cn2)c2cc(NC(=O)C3CC3)ncc12 [Example 951, N-(8-(methylamino)-5-((5-morpholinopyridin-2-yl)ethynyl)-2,7-naphthyridin-3-yl)cyclopropanecarboxamide]
≥ 7.00 | ≥ 6.30 | CNc1ncc(C#Cc2ccc(-n3ccnn3)cn2)c2cc(NC(=O)C3CC3)ncc12 [Example 952, N-(5-((5-(1H-1,2,3-triazol-1-yl)pyridin-2-yl)ethynyl)-8-(methylamino)-2,7-naphthyridin-3-yl)cyclopropanecarboxamide]
≥ 7.00 | ≥ 6.30 | CNc1ncc(C#Cc2ccc(-n3nccn3)cn2)c2cc(NC(=O)C3CC3)ncc12 [Example 953, N-(5-((5-(2H-1,2,3-triazol-2-yl)pyridin-2-yl)ethynyl)-8-(methylamino)-2,7-naphthyridin-3-yl)cyclopropanecarboxamide]
≥ 7.00 | ≥ 6.30 | CNc1ncc(C#Cc2ccc(-n3cccn3)cn2)c2cc(NC(=O)C3CC3)ncc12 [Example 954, N-(5-((5-(1H-pyrazol-1-yl)pyridin-2-yl)ethynyl)-8-(methylamino)-2,7-naphthyridin-3-yl)cyclopropanecarboxamide]
≥ 7.00 | ≥ 6.30 | CNc1ncc(C#Cc2ncccc2C2CC2)c2cc(NC(=O)C3CC3)ncc12 [Example 955, N-(5-((3-cyclopropylpyridin-2-yl)ethynyl)-8-(methylamino)-2,7-naphthyridin-3-yl)cyclopropanecarboxamide]
≥ 7.00 | ≥ 6.30 | CNc1ncc(C#Cc2ccc3c(c2)CCNC3)c2cc(NC(=O)C3CC3)ncc12 [Example 956, N-(8-(methylamino)-5-((1,2,3,4-tetrahydroisoquinolin-6-yl)ethynyl)-2,7-naphthyridin-3-yl)cyclopropanecarboxamide]
≥ 7.00 | ≥ 6.30 | CNc1ncc(C#Cc2ccc(-c3cnn(C)n3)cc2)c2cc(NC(=O)C3CC3)ncc12 [Example 957, N-(5-((4-(2-methyl-2H-1,2,3-triazol-4-yl)phenyl)ethynyl)-8-(methylamino)-2,7-naphthyridin-3-yl)cyclopropanecarboxamide]
≥ 7.00 | ≥ 6.30 | CNc1ncc(C#CC23CC(OC)(C2)C3)c2cc(NC(=O)C3CC3)ncc12 [Example 958, N-(5-((3-methoxybicyclo[1.1.1]pentan-1-yl)ethynyl)-8-(methylamino)-2,7-naphthyridin-3-yl)cyclopropanecarboxamide]
≥ 7.00 | ≥ 6.30 | CNc1ncc(C#Cc2sc(C(C)=O)cc2C)c2cc(NC(=O)C3CC3)ncc12 [Example 959, N-(5-((5-acetyl-3-methylthiophen-2-yl)ethynyl)-8-(methylamino)-2,7-naphthyridin-3-yl)cyclopropanecarboxamide]
≥ 7.00 | ≥ 6.30 | CNc1ncc(C#Cc2sccc2CO)c2cc(NC(=O)C3CC3)ncc12 [Example 960, N-(5-((3-(hydroxymethyl)thiophen-2-yl)ethynyl)-8-(methylamino)-2,7-naphthyridin-3-yl)cyclopropanecarboxamide]
≥ 7.00 | ≥ 6.30 | CCc1nc(C)c(C#Cc2cnc(NC)c3cnc(NC(=O)C4CC4)cc23)s1 [Example 961, N-(5-((2-ethyl-4-methylthiazol-5-yl)ethynyl)-8-(methylamino)-2,7-naphthyridin-3-yl)cyclopropanecarboxamide]
